Data on 9 compounds can be found in patent publication US20240043439A1, “COMPOUNDS AS C5AR INHIBITORS” (Kira Pharmaceuticals (Suzhou) Ltd., priority 2020, published 2024).

pIC50: −log10 of the molar value.

C5aR, sequence (P21730 whole entry): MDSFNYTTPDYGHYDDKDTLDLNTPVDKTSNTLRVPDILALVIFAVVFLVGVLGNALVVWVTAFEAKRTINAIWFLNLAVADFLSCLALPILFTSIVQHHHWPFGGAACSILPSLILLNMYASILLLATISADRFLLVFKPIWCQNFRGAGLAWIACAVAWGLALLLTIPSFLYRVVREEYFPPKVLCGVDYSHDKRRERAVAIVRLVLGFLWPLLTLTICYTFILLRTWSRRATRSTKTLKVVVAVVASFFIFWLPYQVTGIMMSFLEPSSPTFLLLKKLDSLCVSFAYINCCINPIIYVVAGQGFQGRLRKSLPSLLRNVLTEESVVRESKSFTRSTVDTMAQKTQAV

The assay has as its target C5aR (Homo sapiens (Human), UniProt P21730). Kind of assay: Calcium mobilization (U937/C5aR or HEK293/C5aR cells, FLIPR). In kind it is cell-based. As to conditions: agonist human C5a at EC80, FLIPR. How it is done:
U937/C5aR cells or HEK293/C5aR cells were washed by PBS and suspended in growth media at the density of 1×10^6 cells/ml. […] to the 384-well plate and culture for overnight. Transfer 250 nl compound solution to the cell plate using Echo, incubate for 60 min. Cells were added with Fluo-4 Direct™ dye and incubate for 50 min at 37° C. 5% CO2 and 10 m at room temperature. Place the cell plate into […] (Molecular Devices). Transfer 10 μl of 5-fold EC80 concentrations of agonist human C5a to the cell plates.
For orientation: Calcium flux is commonly read through the fluorescence of an indicator in the cells.
Turning to `Cc1cccc(F)c1C(=O)N1[C@@H]2COC[C@@H]2CC(C(=O)Nc2cccnc2)[C@@H]1c1ccc(NC2CCOCC2)cc1` (mixture of isomers) [Compound 128, cis-1-(2-fluoro-6-methylbenzoyl)-N-(pyridin-3-yl)-2-(4-((tetrahydro-2H-pyran-4-yl)amino)phenyl)octahydrofuro[3,4-b]pyridine-3-carboxamide], the pIC50 (commonly −log10 of the IC50, conventionally taken in molar units) was 5.00 to 5.70.
For `Cc1cccc(F)c1C(=O)N1C2CCC[C@@H]2C[C@H](C(=O)Nc2cnc(-n3nccn3)c(Cl)c2)[C@@H]1c1ccc(NC2CCCC2)cc1` (relative stereo) [Compound 75, cis-N-(5-chloro-6-(2H-1,2,3-triazol-2-yl)pyridin-3-yl)-2-(4-(cyclopentylamino)phenyl)-1-(2-fluoro-6-methylbenzoyl)octahydro-1H-cyclopenta[b]pyridine-3-carboxamide] the value was below 5.00; for `Cc1ccc(NC(=O)[C@H]2C[C@H]3CCC[C@H]3N(C(=O)c3cnn(C)c3)C2c2ccc(NC3CCCC3)cc2)cc1C(F)(F)F` (relative stereo) [Compound 112, cis-2-(4-(cyclopentylamino)phenyl)-1-(1-methyl-1H-pyrazole-4-carbonyl)-N-(4-methyl-3-(trifluoromethyl)phenyl)octahydro-1H-cyclopenta[b]pyridine-3-carboxamide], below 5.00.
On to `Cc1cccc(F)c1C(=O)N1C(c2ccc(NC3CCN(C)CC3)cc2)C(C(=O)Nc2ccc3c(cnn3C)c2)C[C@@H]2CCC[C@@H]21` (relative stereo) [Compound 117, cis-1-(2-fluoro-6-methylbenzoyl)-N-(1-methyl-1H-indazol-5-yl)-2-(4-((1-methylpiperidin-4-yl)amino)phenyl)octahydro-1H-cyclopenta[b]pyridine-3-carboxamide], for which the pIC50 was 5.00 to 5.70.
In the case of `Cc1cccc(F)c1C(=O)N1C(c2ccc(NC3CCOCC3)cc2)C(C(=O)Nc2cnn(C)c2)C[C@@H]2COC[C@@H]21` (relative stereo) [Compound 127, cis-1-(2-fluoro-6-methylbenzoyl)-N-(1-methyl-1H-pyrazol-4-yl)-2-(4-((tetrahydro-2H-pyran-4-yl)amino)phenyl)octahydrofuro[3,4-b]pyridine-3-carboxamide] it was 5.00 to 5.70.
As for `Cc1ccc(NC(=O)C2C[C@@H]3CN(CC(F)(F)F)C[C@@H]3N(C(=O)c3c(C)cccc3F)C2c2ccc(NC3CCCC3)cc2)cc1C(F)(F)F` (relative stereo) [Compound 206, cis-2-(4-(cyclopentylamino)phenyl)-1-(2-fluoro-6-methylbenzoyl)-N-(4-methyl-3-(trifluoromethyl)phenyl)-6-(2,2,2-trifluoroethyl)octahydro-1H-pyrrolo[3,4-b]pyridine-3-carboxamide], the pIC50 was 5.00 to 5.70.
On to `Cc1ccc(NC(=O)C2CC3CCCC3N(C(=O)c3c(C)cccc3F)C2c2ccc(NC3CCCC3)cc2)cc1C(F)(F)F` (stereo in doubt) [Compound 48, (2S,3R,4aS,7aS)-2-(4-(cyclopentylamino)phenyl)-1-(2-fluoro-6-methylbenzoyl)-N-(4-methyl-3-(trifluoromethyl)phenyl)octahydro-1H-cyclopenta[b]pyridine-3-carboxamide], for which the pIC50 was 5.00 to 5.70.
With `Cc1ccc(NC(=O)[C@@H]2CCCN(c3ccncn3)[C@H]2c2ccc(NC3CCCC3)cc2)cc1C(F)(F)F` [Compound 3, (2R,3R)-2-(4-(cyclopentylamino)phenyl)-N-(4-methyl-3-(trifluoromethyl)phenyl)-1-(pyrimidin-4-yl)piperidine-3-carboxamide], the pIC50 is 5.00 to 5.70.
With `Cc1cc(C)cc(S(=O)(=O)N2CCC[C@H](C(=O)Nc3ccc(C)c(C(F)(F)F)c3)[C@@H]2c2ccc(NC3CCCC3)cc2)c1` [Compound 12, (2R,3S)-2-(4-(cyclopentylamino)phenyl)-1-((3,5-dimethylphenyl)sulfonyl)-N-(4-methyl-3-(trifluoromethyl)phenyl)piperidine-3-carboxamide], the pIC50 was below 5.00.
